{"source": "patent US9770481B2", "about": "“Inhibitors of NOX1” (UNIVERSITY OF PITTSBURGH—OF THE COMMONWEALTH SYSTEM OF …, priority 2011, dated 2017)", "key": {"[1]": {"test_system": "human pulmonary artery endothelial cells", "assay": "Hypoxia-induced superoxide production by human pulmonary artery endothelial cells", "format": "cell-based", "method": "Experiments were also performed to evaluate the effect of NoxA1ds on hypoxia-induced superoxide production by human pulmonary artery endothelial cells."}, "Nox1-YFP": {"test_system": "Nox1-YFP", "assay": "Image cross correlation spectroscopy (ICCS) of R-NoxA1ds and Nox1-YFP", "format": "binding", "settings": "unlabelled competitor", "method": "An ELISA of Nox1:NoxA1ds interaction was performed as follows. Neutravidin coated plates were incubated with biotin-tagged NoxA1ds (Biotin-NoxA1ds) or biotin-tagged SCRMB (Biotin-SCRMB) before addition of cell membranes prepared from cells transfected with Nox1 (Nox1 membrane) or transfected with an empty vector (COS22 membrane). Bound Nox1 was detected through a FITC conjugated secondary antibody (αRabbit Ab Sigma F9887) bound to the Nox1 primary antibody (rabbit αNox1 Ab (SC-25545, Santa Cruz Biotechnology)). FITC fluorescence was expressed as binding as % COS22 membranes on each experimental day. […] To further confirm the association, image cross correlation spectroscopy (ICCS) was used to determine patterns in signal fluctuation between rhodamine-labeled NoxA1ds (R-NoxA1ds) and Nox1-YFP though a sequence of 100 images 0.05 s apart. Correlation and cross-correlation was calculated using an ImageJ plugin."}, "[2]": {"test_system": "rat aortic smooth muscle cells", "assay": "Stretch-induced migration of rat aortic smooth muscle cells (wound closure)", "format": "cell-based", "settings": "10 μM added every four hours; cyclic stretch 24 hrs", "method": "The effect on NoxA1ds on stretch-induced migration of rat aortic smooth muscle cells was studied. Cell monolayer cultures with an introduced gap (“wound”) were subjected to 24 hrs of cyclic stretch (10%, 1 Hz) with 10 μM NoxA1ds or SCRMB control being added every four hours. Cell migration may be assessed as the distance the wound has closed, where greater […] corresponds to greater migration. Cell migration increased as a result of cyclic stretch."}, "[3]": {"test_system": "HPAEC constitutively expressing Nox1", "assay": "Angiotensin II-induced O2- production by HPAEC (cytochrome c)", "format": "cell-based, human", "settings": "100 nM angiotensin II, 10 μM peptide, 1 hr", "method": "FIG. 10. O2^− Production by human pulmonary artery endothelial cells (“HPAEC”) which were either (i) untreated; (ii) treated with 100 nM angiotensin II; (iii) treated with 100 nM angiotensin II and 10 μM NoxA1ds; or (iv) treated with 100 nM angiotensin II and 10 μM SCRMB peptide. Results represent mean±SEM, n=5-9, 2-3 separate experiments.\nIn further studies, HPAEC constitutively expressing Nox1 were treated with vehicle or Angiotensin II (AngII, one mediator of hypertension) alone or in combination with NoxA1ds, or SCRMB for 1 hr. O2^− production was then measured via reduction of cytochrome c."}, "[4]": {"test_system": "rat aortic smooth muscle cells", "assay": "O2- production by rat aortic smooth muscle cells under static conditions or cyclic stretch", "format": "cell-based", "method": "FIG. 8. NoxA1ds attenuates stretch-induced O2^− production: Effect of NoxA1ds on O2^− production by rat aortic smooth muscle cells subjected to static conditions or cyclic stretch (10%, 1 Hz, 24 hrs). NoxA1ds was added 4 hrs before measuring O2^− production.\nCyclic stretching of vascular cells occurs as a result of the pulsatile nature of blood flow but is increased in hypertensive states, and has been associated with generation of ROS and possibly cell proliferation. […] At the end of 24 hrs, cells were lysed and membrane fraction O2^− production was measured using cytochrome c."}}, "note": "Entries after “also recorded” stand apart in the source; their conditions may differ."}
{"substance": "H-EPVDALGKAKV-NH2 [NoxA1ds, [NH3^+]-EPVDALGKAKV-[CONH2]]", "values": [{"measurement": "O2- production under hypoxia", "setting": "[1]; hypoxia 1.0% O2, 24 hrs", "value": "returned to the amount observed under normoxia"}, {"measurement": "O2- production under normoxic conditions", "setting": "[1]; normoxia", "value": "negligible effect"}, {"measurement": "Effect of competition with R-NoxA1ds on fractional binding", "setting": "Nox1-YFP", "value": "significantly reduced the fractional binding"}, {"measurement": "Stretch-induced cell migration (wound closure)", "setting": "[2]", "value": "reduced migration to levels observed in non-stretched cells"}, {"measurement": "AngII-induced O2- production", "setting": "[3]", "value": "completely inhibited"}, {"measurement": "Cyclic stretch-induced O2- production", "setting": "[4]; cyclic stretch 10%, 1 Hz, 24 hrs, peptide added at t=20 hrs (4 hrs before measuring)", "value": "completely abrogated; also recorded: inhibited"}, {"measurement": "O2- production under static conditions", "setting": "[4]; static, 10 μM", "value": "negligible effect"}]}
